Results published in the supplement of paper PMC10307832.

Tests used:
Assay in all cases: relative viability (nuclei count vs DMSO), 5 days (fraction); higher = more cells survive
[1] = compound: CC1=CC(=NN1)NC2=CC(=NC(=N2)/C=C/C3=CC=CC=C3)N4CCN(CC4)C + CC1(C)CCC(c2ccc(Cl)cc2)=C(CN2CCN(c3ccc(C(=O)NS(=O)(=O)c4ccc(N[C@H](CCN5CCOCC5)CSc5ccccc5)c(S(=O)(=O)C(F)(F)F)c4)cc3)CC2)C1 [Navitoclax] (partner 0.5 µM)
Procedure, shortened: (§1)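 The day after seeding in 1536-well plates, lung cancer cell lines were treated by pin tool with a single drug, or with a fixed anchor-drug dose together with five library-drug doses (not always all listed) in √10 steps. After 5 days, a combined fix-and-stain solution (final 0.05% Triton X-100, 1% formaldehyde, 1 ug/ml Hoechst) was added. Nuclei counted on 4× images gave relative viability as treated counts over vehicle counts, reported as the median of duplicate plates.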

Obatoclax + Vorinostat = compound: COC1=CC(c2cc3ccccc3[nH]2)=N/C1=C\c1[nH]c(C)cc1C [Obatoclax] + O=C(CCCCCCC(=O)Nc1ccccc1)NO [Vorinostat] (partner 1 µM)
Procedure, shortened: as §1

Bortezomib + Foretinib = compound: CC(C)C[C@H](NC(=O)[C@H](Cc1ccccc1)NC(=O)c1cnccn1)B(O)O [Bortezomib] + COc1cc2c(Oc3ccc(NC(=O)C4(C(=O)Nc5ccc(F)cc5)CC4)cc3F)ccnc2cc1OCCCN1CCOCC1 [Foretinib] (partner 0.25 µM)
Procedure, shortened: as §1

[2] = compound: CC1=CC(=NN1)NC2=CC(=NC(=N2)/C=C/C3=CC=CC=C3)N4CCN(CC4)C + COc1cc2c(Oc3ccc(NC(=O)C4(C(=O)Nc5ccc(F)cc5)CC4)cc3F)ccnc2cc1OCCCN1CCOCC1 [Foretinib] (partner 0.25 µM)
Procedure, shortened: as §1

Row | Cell Line | relative viability ([1]; first compound 0.08 µM) | relative viability ([1]; first compound 0.253 µM) | relative viability ([1]; first compound 0.8 µM) | relative viability ([1]; first compound 2.53 µM) | relative viability ([1]; first compound 8 µM) | relative viability (Obatoclax + Vorinostat; first compound 0.01 µM) | relative viability (Obatoclax + Vorinostat; first compound 0.03162 µM) | relative viability (Obatoclax + Vorinostat; first compound 0.1 µM) | relative viability (Obatoclax + Vorinostat; first compound 0.3162 µM) | relative viability (Obatoclax + Vorinostat; first compound 1 µM) | relative viability (Bortezomib + Foretinib; first compound 0.0002 µM) | relative viability (Bortezomib + Foretinib; first compound 0.000632 µM) | relative viability (Bortezomib + Foretinib; first compound 0.002 µM) | relative viability (Bortezomib + Foretinib; first compound 0.006325 µM) | relative viability (Bortezomib + Foretinib; first compound 0.02 µM) | relative viability ([2]; first compound 0.08 µM) | relative viability ([2]; first compound 0.253 µM) | relative viability ([2]; first compound 0.8 µM) | relative viability ([2]; first compound 2.53 µM) | relative viability ([2]; first compound 8 µM)
1 | HCC-44 | 0.967 | 1.01 | 0.965 | 0.912 | 0.436 | 1.04 | 1.06 | 1.05 | 1.1 | 1.03 | – | – | – | – | – | – | – | – | – | –
2 | HCC-78 | 0.799 | 0.918 | 0.823 | 0.568 | 0.126 | 0.384 | 0.441 | 0.551 | 0.438 | 0.527 | 0.505 | 0.577 | 0.492 | 0.432 | 0.254 | 0.582 | 0.666 | 0.54 | 0.492 | 0.233
3 | HCC-366 | 1.07 | 1.19 | 0.989 | 0.371 | 0.0097 | 0.352 | 0.398 | 0.312 | 0.353 | 0.191 | 0.917 | 0.889 | 1.01 | 0.627 | 0.0395 | 0.942 | 1.04 | 0.472 | 0.0589 | 0.0265
4 | HCC-827 | 0.972 | 1.04 | 0.979 | 0.937 | 0.705 | 0.879 | 0.726 | 0.711 | 0.25 | 0.82 | 1.11 | 1.01 | 0.693 | 0.113 | 0.0926 | 1.08 | 1.02 | 0.993 | 0.581 | 0.239
